The source of these data is ChEMBL document CHEMBL1201862, “PubChem BioAssay data set” (2004).

Some test systems named below: TK-10; SK-OV-3; RPMI-8226; NCI/ADR-RES; SK-MEL-28; KM12; SF-268; UACC-62; 786-0; HCC 2998; HOP-92; OVCAR-3; HT-29; PC-3; Hs-578T; NCI-H23; NCI-H522; SF-295; UO-31.
Common to all, as to test: DTP human tumour cell line panel, 48 h

Structures are written as SMILES.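 Results reflect a 48-hour exposure of cells in 96-well plates to compound at five concentrations. Here, GI50 denotes the concentration required for 50% inhibition of growth.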 Active and inactive are the calls of the source. Rule as the data show it: active = GI50 up to about 1.1 µM and inactive = higher. A value given as a limit tells only on which side of the number the result lay.

As for `O=C(/C=C/c1ccc(O)c(O)c1)OCC(OC(=O)/C=C/c1ccc(O)c(O)c1)C(=O)O` (stereo not given), the GI50 in the test with TK-10, with SK-OV-3, with RPMI-8226, in the test on NCI/ADR-RES, with SK-MEL-28 and in the test on KM12 was > 100 µM (inactive) each time. Moreover, the GI50 – broadly, the concentration giving 50% growth inhibition – in the test with SF-268 is > 100 µM (inactive); in the test on UACC-62, > 100 µM (inactive); in the test on 786-0 it was > 100 µM (inactive); with HCC 2998, > 100 µM (inactive); in the test on HOP-92 it was > 100 µM (inactive); in the test with OVCAR-3, 55.2 µM (inactive). The GI50 was > 100 µM (inactive) with HT-29; > 100 µM (inactive) in the test on PC-3; > 100 µM (inactive) in the test on Hs-578T; > 100 µM (inactive) in the test on NCI-H23; 84.7 µM (inactive) in the test on NCI-H522; > 100 µM (inactive) in the test with SF-295. Moreover, the GI50 with UO-31 was 85.7 µM (inactive).

For `Clc1nc2c(-c3cccs3)ncnc2n1Cc1ccccc1`, the GI50 was 23 µM (inactive) in the test with TK-10; 38.9 µM (inactive) in the test with SK-OV-3; 3.58 µM (inactive) with RPMI-8226; 46.3 µM (inactive) in the test on NCI/ADR-RES; 61.5 µM (inactive) in the test on SK-MEL-28; 15.9 µM (inactive) in the test on KM12. Moreover, the GI50 in the test on SF-268 is 29.6 µM (inactive); with UACC-62 it was 72.3 µM (inactive); with 786-0, 19.5 µM (inactive); in the test on HCC 2998, 3.21 µM (inactive); in the test on HOP-92, 9.44 µM (inactive); in the test on OVCAR-3, 23 µM (inactive). The GI50 is 39.8 µM (inactive) in the test on HT-29; 26.2 µM (inactive) with PC-3; 22.8 µM (inactive) in the test with Hs-578T; 46.1 µM (inactive) in the test on NCI-H23; 19.4 µM (inactive) in the test with NCI-H522; 63.5 µM (inactive) in the test with SF-295. Besides, in the test on UO-31, the GI50 is 0.435 µM (active).

On to `COc1ccc(C2SC(C)C(=O)N2c2nc(-c3nc(-c4ccc(Cl)cc4)cs3)cs2)cc1` (stereo not given), for which the GI50 was > 100 µM (inactive) in the test on TK-10; > 100 µM (inactive) with SK-OV-3; > 100 µM (inactive) with RPMI-8226; > 100 µM (inactive) in the test with NCI/ADR-RES; > 10 µM (inactive) in the test on SK-MEL-28; > 100 µM (inactive) in the test on KM12. The GI50 in the test on SF-268, with UACC-62, in the test on 786-0, in the test with HCC 2998, in the test with HOP-92 and with OVCAR-3 was > 100 µM (inactive) in each case. The GI50 with HT-29 is > 100 µM (inactive); in the test with PC-3 it was 66.8 µM (inactive); in the test with Hs-578T, > 100 µM (inactive); with NCI-H23 it was > 100 µM (inactive); in the test on NCI-H522, > 100 µM (inactive); with SF-295, > 100 µM (inactive). Moreover, in the test on UO-31, the GI50 is > 100 µM (inactive).

Regarding `C1=N\c2ccc(cc2)-c2ccc(cc2)/N=C\c2ccccc2OCc2cccc(n2)COc2ccccc2/1`, the GI50 in the test on TK-10 was 26.6 µM (inactive); with SK-OV-3 it was 30.1 µM (inactive); with RPMI-8226, > 100 µM (inactive); in the test on NCI/ADR-RES it was > 100 µM (inactive); in the test on SK-MEL-28, 84.9 µM (inactive); with KM12, > 100 µM (inactive). Also, the GI50 in the test on SF-268 was 20.6 µM (inactive); in the test on UACC-62, 39.4 µM (inactive); with 786-0, 9.38 µM (inactive); in the test on HCC 2998, > 100 µM (inactive); with HOP-92, 10.9 µM (inactive); in the test with OVCAR-3, > 100 µM (inactive). The GI50 in the test with HT-29 was > 100 µM (inactive); with PC-3 it was > 100 µM (inactive); with Hs-578T, 13.1 µM (inactive); in the test on NCI-H23 it was 15.1 µM (inactive); with NCI-H522 it was 23.8 µM (inactive); in the test on SF-295, 18.5 µM (inactive). In addition, in the test with UO-31, the GI50 is > 60.7 µM (inactive).

Consider `COC(=O)c1ccc(NCC2=CC(=O)c3ccccc3C2=O)cc1`, for which the GI50 in the test on TK-10 was 22.2 µM (inactive); in the test with SK-OV-3, 16.1 µM (inactive); in the test with RPMI-8226, 6.32 µM (inactive); with NCI/ADR-RES, 27.5 µM (inactive); in the test on SK-MEL-28, 17.5 µM (inactive); in the test on KM12 it was 15.4 µM (inactive). Besides, the GI50 was 24.8 µM (inactive) in the test on SF-268; 13.6 µM (inactive) with UACC-62; 19.3 µM (inactive) in the test with 786-0; 19.4 µM (inactive) in the test on HCC 2998; 2.77 µM (inactive) in the test with HOP-92; 12.9 µM (inactive) with OVCAR-3. The GI50 in the test with HT-29 was 25.7 µM (inactive); in the test on PC-3 it was 14.3 µM (inactive); in the test on Hs-578T, 28.6 µM (inactive); with NCI-H23 it was 14.5 µM (inactive); with NCI-H522, 13.2 µM (inactive); in the test on SF-295, 16.9 µM (inactive). In addition, the GI50 in the test on UO-31 is 16.1 µM (inactive).

For the compound `COC(=O)[C@H]1[C@@H](O)[C@@]2(O)c3c(OC)cc(OC)cc3O[C@@]2(c2ccc3c(c2)OCO3)[C@@H]1c1ccccc1`, the GI50 in the test with TK-10 is 0.00684 µM (active); with SK-OV-3, 0.00539 µM (active); with RPMI-8226, < 0.005 µM (active); in the test with NCI/ADR-RES, 0.00893 µM (active); with SK-MEL-28 it was 0.00815 µM (active); with KM12 it was < 0.005 µM (active). For the same compound, the GI50 was 0.0117 µM (active) in the test with SF-268; 0.0222 µM (active) in the test with UACC-62; 0.00625 µM (active) in the test with 786-0; 0.00838 µM (active) in the test with HCC 2998; 0.0408 µM (active) in the test on HOP-92; 0.0225 µM (active) in the test on OVCAR-3. The GI50 in the test with HT-29 was < 0.005 µM (active); in the test with PC-3, 0.0113 µM (active); in the test with Hs-578T, 0.0146 µM (active); with NCI-H23 it was 0.00617 µM (active); with NCI-H522, < 0.0122 µM (active); with SF-295, 0.00578 µM (active). Also, in the test on UO-31, the GI50 is 0.00604 µM (active).

With `NS(=O)(=O)c1ccc(NC(=O)N/N=C/c2ccccc2[N+](=O)[O-])cc1`, the GI50 was > 100 µM (inactive) in the test on TK-10; 45.5 µM (inactive) in the test on SK-OV-3; 30.3 µM (inactive) in the test with RPMI-8226; 33.3 µM (inactive) in the test on NCI/ADR-RES; 61.2 µM (inactive) in the test with SK-MEL-28; 36 µM (inactive) with KM12. In addition, the GI50 with SF-268 was 56.6 µM (inactive); with UACC-62 it was 75.3 µM (inactive); with 786-0, 45.6 µM (inactive); in the test on HCC 2998 it was 33.9 µM (inactive); in the test with HOP-92 it was 65.3 µM (inactive); in the test with OVCAR-3 it was 30.1 µM (inactive). Also, the GI50 in the test on HT-29 was 30.1 µM (inactive); with PC-3, 35.6 µM (inactive); in the test on Hs-578T, 46.6 µM (inactive); in the test with NCI-H23 it was 41.6 µM (inactive); in the test with NCI-H522, 41.8 µM (inactive); with SF-295, 61.7 µM (inactive). Also, the GI50 in the test on UO-31 is 41 µM (inactive).

For `COc1cc2c3cc1Oc1c(O)c(OC)cc4c1[C@H](Cc1ccc(cc1)Oc1cc(ccc1O)C[C@H]3N(C)CC2)N(C)CC4`, the GI50 in the test on TK-10 was 13.6 µM (inactive); with SK-OV-3 it was 25.4 µM (inactive); with RPMI-8226, 5.33 µM (inactive); in the test with NCI/ADR-RES it was 24.5 µM (inactive); with SK-MEL-28 it was 19.2 µM (inactive); with KM12, 9.02 µM (inactive). In addition, the GI50 with SF-268 is 14.4 µM (inactive); in the test on UACC-62, 17.4 µM (inactive); in the test with 786-0, 6.52 µM (inactive); in the test on HCC 2998, 7.05 µM (inactive); with HOP-92, 6.64 µM (inactive); in the test on OVCAR-3 it was 10.2 µM (inactive). Moreover, the GI50 in the test on HT-29 is 3.84 µM (inactive); in the test on PC-3 it was 8.51 µM (inactive); with Hs-578T, 20 µM (inactive); in the test on NCI-H23, 22.4 µM (inactive); in the test on NCI-H522, 11 µM (inactive); in the test with SF-295 it was 12.4 µM (inactive). Moreover, in the test on UO-31, the GI50 is 12.6 µM (inactive).

On to `CCN(CC)CCC(=O)c1ccc(C)cc1`, for which the GI50 is > 10 µM (inactive) with TK-10; > 100 µM (inactive) with SK-OV-3; 2.62 µM (inactive) with RPMI-8226; 25.5 µM (inactive) in the test on NCI/ADR-RES; 16.3 µM (inactive) with SK-MEL-28; > 10 µM (inactive) in the test with KM12. Moreover, the GI50 in the test with SF-268 was > 100 µM (inactive); in the test on UACC-62, 28.4 µM (inactive); with 786-0, 17.7 µM (inactive); in the test with HCC 2998 it was 43 µM (inactive); in the test on HOP-92 it was 18.2 µM (inactive); with OVCAR-3 it was 17.7 µM (inactive). Further, the GI50 with HT-29 was 20.8 µM (inactive); in the test with PC-3 it was 54.7 µM (inactive); in the test with Hs-578T, 61.5 µM (inactive); with NCI-H23 it was 21.3 µM (inactive); in the test with NCI-H522, 13.8 µM (inactive); in the test on SF-295 it was > 100 µM (inactive). Moreover, the GI50 in the test with UO-31 is 23 µM (inactive).

Turning to `COc1ccc2c(c1)/c(=C/C#N)c1c3ccccc3[n+](C)n21`, the GI50 with TK-10 was 6.9 µM (inactive); in the test on SK-OV-3, 15.5 µM (inactive); with RPMI-8226, 1.96 µM (inactive); in the test on NCI/ADR-RES, 18.4 µM (inactive); in the test with SK-MEL-28, 5.58 µM (inactive); with KM12, 6.04 µM (inactive). For the same compound, the GI50 in the test with SF-268 was 8.71 µM (inactive); with UACC-62 it was 13.6 µM (inactive); with 786-0, 3.95 µM (inactive); in the test with HCC 2998 it was 1.44 µM (inactive); in the test on HOP-92, 1.16 µM (inactive); in the test on OVCAR-3, 1.34 µM (inactive). For the same compound, the GI50 was 2.24 µM (inactive) with HT-29; 2.8 µM (inactive) with PC-3; 8.55 µM (inactive) in the test with Hs-578T; 5.3 µM (inactive) in the test with NCI-H23; 4.33 µM (inactive) in the test on NCI-H522; 7.69 µM (inactive) with SF-295. In the test on UO-31, the GI50 is 16.7 µM (inactive).
